According to PMC12797497, “Si-Ni-San improves the deposition of lipid droplets in MAFLD through modulating the FXR-GPAT4 axis” (Chinese Medicine, 2026):
Entries after “also recorded” stand apart in the source; their conditions may differ.

How the values were obtained:
[1] = test system: NASH; design: method as in PMID 38324483; conditions: MAESTRO-NASH Phase III trial; cited from earlier work
[2] = biological target: T1, FXR protein (Homo sapiens, UniProt Q96RI1); experiment: Surface plasmon resonance (SPR), FXR immobilized on CM5 chip; assay type: binding; conditions: SPR steady-state affinity fit
T1 sequence (Q96RI1 1-486): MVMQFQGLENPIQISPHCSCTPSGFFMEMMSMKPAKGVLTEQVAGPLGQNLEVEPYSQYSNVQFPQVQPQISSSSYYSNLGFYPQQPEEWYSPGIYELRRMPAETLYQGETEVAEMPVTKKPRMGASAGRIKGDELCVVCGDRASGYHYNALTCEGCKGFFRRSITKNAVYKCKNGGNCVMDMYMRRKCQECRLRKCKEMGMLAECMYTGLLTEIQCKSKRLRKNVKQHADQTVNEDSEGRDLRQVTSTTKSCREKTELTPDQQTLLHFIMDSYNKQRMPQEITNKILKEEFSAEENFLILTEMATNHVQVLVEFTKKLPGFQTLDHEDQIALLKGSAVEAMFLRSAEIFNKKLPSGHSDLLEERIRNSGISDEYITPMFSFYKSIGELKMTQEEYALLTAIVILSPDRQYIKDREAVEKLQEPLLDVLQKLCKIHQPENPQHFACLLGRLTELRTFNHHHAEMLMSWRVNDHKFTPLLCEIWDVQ
Method: SPR analysis was performed by a Biacore S200 system (Cytiva, USA) equipped with a CM5 sensor chip. The FXR protein was immobilized on the chip via the standard amine coupling protocol, with the protein dissolved in a sodium acetate buffer at pH 4.5 and a concentration of 10 mM. […] Equilibrium dissociation constants (KD) were determined by fitting the response curves using the steady-state affinity model available in the Biacore S200 Evaluation Software.

[3] = test system: T2DM and high-risk obese individuals; conditions: cited from earlier work
[4] = test system: FXR; experiment: FXR protein expression in liver and colon of MAFLD mice (western blot, IHC); assay type: in vivo, C57BL/6N mice
Method: (§1) A standard diet was fed to the NC group, while HFD (D12451, Huanyu Hekang Biotechnology, China) was fed to the other four groups for 12 weeks. […] During this period, mice in the NC group and HFD group were given isovolumetric distilled water respectively.
(§2) Total protein was extracted using a protein extraction kit (PC201Plus, Epizyme). Then, the protein concentration was measured using a BCA kit (PC0020, Solarbio). The 50 μg of the total protein samples were loaded onto an SDS-PAGE gel. Following electrophoresis, the protein was transferred into polyvinylidene fluoride (PVDF) membranes. Whereafter, the membranes were first blocked with 5% nonfat dry milk in TBST and incubated with primary antibodies against FXR (bs-12867R, Bioss, 1:1000), GPAT4 (bs-15587R, Bioss, China, 1:1000), P62 (380612-50, Zenbio, China, 1:1000), HSL (344379-50, Zenbio, China, 1:1000), MAGL (PAD223Hu01, Cloud-Clone Corp, China, 1:1000), Beclin1 (BS-1353R, Bioss, China, 1:1000), ATGL (R389129-50, Bioss, China, 1:1000), LC3Ⅰ/Ⅱ (ABC929, Merck, USA, 1:1000), β-actin (bs-0061R, Bioss, China, 1:5000) and GAPDH (GB11002-100, Servicebio, China, 1:5000). After 12 h of incubation at 4 °C, the blots were proceeded with HRP-conjugated secondary antibody. Finally, the immune bands were detected using an ECL detection kit (sb-wb012, Shanghai Shenger Biotechnology Co., Ltd, China). The average gray value was quantified using Image J software.
The paraffin sections of liver were performed dewaxing followed by antigen retrieval, then add FXR primary antibody (bs-12867R, Bioss, 1:200) and GPAT4 primary antibody (bs-1924R, Bioss, 1:200), and incubate overnight at 4 °C. After the diaminobenzidine (DAB) enhanced staining, the sections were mounted with neutral gum. Finally, the images were observed and captured via a Leica DM4000B light microscope (Germany).

[5] = test system: LDAH; experiment: LDAH protein level in liver of MAFLD mice (western blot); assay type: in vivo, C57BL/6N mice; conditions: vs HFD group
[6] = test system: GPAT4; experiment: GPAT4 expression in oleic acid-induced HepG2 cells (western blot); assay type: cell-based, human; conditions: HepG2, OA 24 h; 15% SNS-containing serum or OCA 1 μM
Method: (§3) The HepG2 cell line was purchased from the American Type Culture Collection (Manassas, USA) and cultured in RPMI 1640 medium (Solarbio, China) with 10% fetal bovine serum (Gibco, USA) in an atmosphere with 5% CO2 and 100% humidity at 37 ℃. Oleic acid (OA) was purchased from Shanghai Macklin Biochemical Co., Ltd. (C11391320, Macklin, China). […] Cells were inoculated into 6-well plates and 96-well plates and treated with OA solution and SNS/NS-containing serum for 24 h.
(§4) Total protein was extracted using a protein extraction kit (PC201Plus, Epizyme). Then, the protein concentration was measured using a BCA kit (PC0020, Solarbio). The 50 μg of the total protein samples were loaded onto an SDS-PAGE gel. Following electrophoresis, the protein was transferred into polyvinylidene fluoride (PVDF) membranes. […] Finally, the immune bands were detected using an ECL detection kit (sb-wb012, Shanghai Shenger Biotechnology Co., Ltd, China). The average gray value was quantified using Image J software.

[7] = test system: MAFLD mice; experiment: HFD-induced MAFLD mouse model: body/liver weight, histology, serum biochemistry, hepatic TBA; assay type: in vivo, C57BL/6N mice; conditions: SNS 5.2 g/kg/d or OCA 10 mg/kg/d orally for 2 weeks
Text: as §1
Serum samples were collected to measure the content of TG, total cholesterol (TC), alanine aminotransferase (ALT), aspartate aminotransferase (AST), high-density lipoprotein cholesterol (HDL-C), and low-density lipoprotein cholesterol (LDL-C). The Reado/Changchun Huili kit was used for the assay, measured by a fully automatic biochemistry analyzer.
The TBA content in liver tissue was detected by a TBA assay kit (E003-2-1, Nanjing Jiancheng Bioengineering Institute, China). According to the kit instruction manual, the liver tissues were subjected to lysis, after which the supernatant was collected and added to a 96-well plate. Blank controls and standard controls were set up. Subsequently, 180 μL of Reagent 1 was added, followed by gentle shaking to mix thoroughly, and incubation at 37 °C for 5 min. After that, 60 μL of Reagent 2 was added, mixed well by gentle shaking, and incubated at 37 °C for 1 min. The absorbance (A0) was measured at a wavelength of 405 nm using a microplate reader. Another incubation at 37 °C for 3 min was conducted, and then the absorbance (A1) was measured again. The ΔA value was calculated as ΔA = A1−A0, which represents the TBA content in the liver tissues.
Liver tissue from each group of mice was fixed in 4% formalin, embedded in paraffin, and prepared as paraffin tissue sections with a thickness of 5 μm. The sections were dewaxed and rehydrated, subsequently subjected to H&E staining, and finally examined under a microscope (Leica DM2500, Germany) for the observation of LDs.
Lipid accumulation in vivo was assessed by oil red O (ORO) staining (G1261, Solarbio, China). For liver tissue, frozen tissue sections were prepared at a thickness of 10 μm. After fixation in formalin, the sections were washed in 60% isopropanol and then stained with freshly prepared ORO working solution for 15 min. Following rinsing with 60% isopropanol, the sections were examined under a microscope.

[8] = test system: HSL, ATGL, MAGL, P62, Beclin1, LC3Ⅰ/Ⅱ; experiment: Lipolysis- and lipophagy-related protein expression in liver of MAFLD mice (western blot); assay type: in vivo, C57BL/6N mice; conditions: vs HFD group
Method: as §1, §2

[9] = test system: oleic acid-induced HepG2 cells; experiment: ORO staining of lipid droplets in oleic acid-induced HepG2 cells; assay type: cell-based, human; conditions: HepG2, OA 24 h; 15% SNS-containing serum vs NS serum, or OCA 1 μM
Method: as §3
In vitro, the HepG2 cell cells were firstly seeded in 6-well plates (3 × 10^5 cells/well). After the cells were washed with PBS, ORO fixative was added to each well for 20–30 min, and 60% isopropyl alcohol was added to each well for 5 min. Then, ORO staining solution was used to stain the cells for 10–20 min. After the cells were washed with PBS, hematoxylin staining solution was used to re-stain the nucleus. Then, we added ORO buffer for 1 min. Finally, we used glycerin gelatin to seal the tablets. The changes in LDs were measured with Image Pro Plus v6.0 software (Media Cybemetic, USA).

[10] = test system: FXR; experiment: FXR expression in oleic acid-induced HepG2 cells (western blot); assay type: cell-based, human; conditions: HepG2, OA 24 h; 15% SNS-containing serum or OCA 1 μM
Method: as §3, §4

[11] = test system: GPAT4; experiment: GPAT4 protein expression in liver of MAFLD mice (western blot, IHC); assay type: in vivo, C57BL/6N mice; conditions: vs HFD group
Method: as §1
as §2, with “After 12 h of incubation at 4 °C, the blots were proceeded with HRP-conjugated secondary antibody.” left out, “software. […]” for “software.”

CC(C)c1cc(Oc2c(Cl)cc(-n3nc(C#N)c(=O)[nH]c3=O)cc2Cl)n[nH]c1=O [Resmetirom]
LDL-C decrease [1]: 13–16% | NASH resolution [1]: 26–30% | fibrosis improvement [1]: 24–26% | tolerability / adverse events [1]: well-tolerated, with primarily mild diarrhea and nausea, and a serious adverse event rate comparable to placebo

COc1cc(-c2oc3cc(O)cc(O)c3c(=O)c2O)ccc1O [Isorhamnetin]
Rmax [2]: 20.3 RU

COc1ccc([C@@H]2CC(=O)c3c(O)cc(O[C@@H]4O[C@H](CO)[C@@H](O)[C@H](O)[C@H]4O[C@@H]4O[C@@H](C)[C@H](O)[C@@H](O)[C@H]4O)cc3O2)cc1O [Neohesperidin]
Rmax [2]: 181.5 RU

Semaglutide
reduction in major adverse cardiovascular events ([3]; SUSTAIN 6 and SELECT, T2DM and high-risk obese individuals): 18–20% | weight loss [3]: at least 10% | safety profile ([3]; human, in vivo): common gastrointestinal reactions and infrequent serious adverse events

COc1ccc([C@@H]2CC(=O)c3c(O)cc(O[C@@H]4O[C@H](CO[C@@H]5O[C@@H](C)[C@H](O)[C@@H](O)[C@H]5O)[C@@H](O)[C@H](O)[C@H]4O)cc3O2)cc1O [Hesperidin]
Rmax [2]: 49.9 RU

CC[C@H]1[C@@H](O)[C@@H]2[C@H](CC[C@]3(C)[C@@H]([C@H](C)CCC(=O)O)CC[C@@H]23)[C@@]2(C)CC[C@@H](O)C[C@@H]12 [OCA, Obeticholic acid]
positive localization of FXR in liver tissues ([4]; IHC, liver): increased the positive localization of FXR in liver tissues | FXR expression in the colon ([4]; western blot, colon, vs HFD group): elevated colonic FXR expression | hepatic FXR expression ([4]; western blot, liver, vs HFD group): activated its expression; also recorded: activated FXR | protein level of LDAH [5]: downregulated LDAH | GPAT4 expression in cells [6]: inhibited GPAT4 expression in cells | Rmax [2]: 32.0 RU | liver coefficient (liver weight/body weight) [7]: restored to normal levels | body weight at week 12 ([7]; vs HFD group): significantly decreased body weight | hepatic TBA level ([7]; vs HFD group): reduced TBA levels | liver LDs deposition (H&E and ORO staining) ([7]; vs HFD group): significantly reduced LDs compared to the HFD group | liver weight ([7]; vs HFD group): significant reduction in liver weights | serum ALT ([7]; vs HFD group): effectively reduced liver injury induced by HFD | serum AST ([7]; vs HFD group): effectively reduced liver injury induced by HFD | serum LDL-C ([7]; vs HFD group): reduced following SNS and OCA treatment | serum TC ([7]; vs HFD group): reduced following SNS and OCA treatment | serum TG ([7]; vs HFD group): reduced following SNS and OCA treatment | ATGL expression [8]: increased HSL and ATGL expression | Beclin1 expression [8]: activated Beclin1 | HSL expression [8]: increased HSL and ATGL expression | MAGL expression [8]: decreased MAGL expression | P62 expression [8]: suppressed P62 expression | intracellular LDs accumulation (ORO staining) [9]: reduced LDs deposition in cells | FXR expression in cells [10]: increased FXR expression | positive localization of GPAT4 in liver tissues ([11]; IHC): reduced the positive localization of GPAT4 in liver tissues | GPAT4 expression in liver ([11]; western blot): inhibited GPAT4 expressions

COc1ccc(-c2cc(=O)c3c(OC)c(OC)c(OC)c(OC)c3o2)cc1OC [Nobiletin]
Rmax [2]: 210.1 RU

O=C1C[C@@H](c2ccc(O[C@@H]3O[C@H](CO)[C@@H](O)[C@H](O)[C@H]3O)cc2)Oc2cc(O)ccc21 [Liquiritin]
Rmax [2]: 12.1 RU
